Results on ten molecules are retold here after patent US9598433B2, “Hepatitis C virus inhibitors” (BRISTOL-MYERS SQUIBB COMPANY, priority 2012, dated 2017).

For data set [1] the following is noted: rcm bond, 15-membered ring, Hoveyda-Grubbs II (5 mol%), DCE, 80.0 °C.
Data set [2] concerns HCV genotype 1a (H77 strain) replicon in HUH-7 cells. Kind of data set: HCV replicon luciferase reporter assay, genotype 1a. It counts as cell-based. As to conditions: Hepatitis C virus, 72 h, genotype 1a replicon, 3 days incubation, read-out: LE_1a (EC50, range). The gist of the method: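 Stable HUH-7 line carrying luciferase-reporter genotype 1a (H77) replicon with adaptive NS3 P1496L and NS5A S2204I mutations; 3.0×10^3 cells/well in 4% FCS, 0.5% DMSO, twenty-point 3-fold titration, 3 days at 37 °C. Renilla luminescence with 7.5 μM EnduRen; EC50 by four-parameter logistic fit; CC50 by multiplexed Cell Titer-Blue.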

For data set [3], the system named is HCV genotype 1b (Con1) replicon in HUH-7 cells. Put plainly: HCV replicon luciferase reporter assay, genotype 1b. It counts as cell-based. As to conditions: Hepatitis C virus, 72 h, genotype 1b replicon, 3 days incubation, read-out: LE_1b (EC50, range). The gist of the method:
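Replication was read as Renilla luciferase signal, using 7.5 μM EnduRen substrate with a 2-h incubation at 37 °C. The signal came from a HUH-7 line constitutively expressing a luciferase-tagged 1b (Con1) replicon carrying S1179I.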
(A replicon is a self-replicating genome or part of one, used to study replication in cells.)

The conditions of data set [4]: from C=CCC[C@@H](C)O[C@@H](C)C(NC(=O)OC(C)(C)C)C(=O)N1C[C@H](Oc2nccc3cc(OC)ccc23)C[C@H]1C(=O)N[C@]1(C(=O)NS(=O)(=O)C2(C)CC2)C[C@H]1C=C; rcm bond; 15-membered ring; Hoveyda-Grubbs II (5 mol%); DCE; 7.2 mM; 80.0 °C; 2.0 h.

The structures appear in SMILES notation. Read-outs that look alike come from different tables or passages of the source.

Take `CC[C@@H]1OCCC/C=C\[C@@H]2C[C@@]2(C(=O)NS(=O)(=O)C2(C)CC2)NC(=O)[C@@H]2C[C@@H](O)CN2C(=O)[C@H]1NC(=O)OC(C)(C)C`: in data set [1] (from C=CCCCO[C@@H](CC)[C@H](NC(=O)OC(C)(C)C)C(=O)N1C[C@H](O)C[C@H]1C(=O)N[C@]1(C(=O)NS(=O)(=O)C2(C)CC2)C[C@H]1C=C, 7.5 mM, 74.0 h), the ring closure, isolated yield worked out at 22%.
With `CC[C@@H]1O[C@H](C)CC/C=C\[C@@H]2C[C@@]2(C(=O)NS(=O)(=O)C2(CF)CC2)NC(=O)[C@@H]2C[C@@H](O)CN2C(=O)[C@H]1NC(=O)OC(C)(C)C`, the ring closure, isolated yield in data set [1] (from C=CCC[C@@H](C)O[C@@H](CC)[C@H](NC(=O)OC(C)(C)C)C(=O)N1C[C@H](O)C[C@H]1C(=O)N[C@]1(C(=O)NS(=O)(=O)C2(CF)CC2)C[C@H]1C=C, 9.2 mM, 16.0 h) amounted to 22%.
`CC[C@@H]1O[C@H](C)CC/C=C\[C@@H]2C[C@@]2(C(=O)NS(=O)(=O)C2CC2)NC(=O)[C@@H]2C[C@@H](O)CN2C(=O)[C@H]1NC(=O)OC(C)(C)C` returned a ring closure, isolated yield in data set [1] (from C=CCC[C@@H](C)O[C@@H](CC)[C@H](NC(=O)OC(C)(C)C)C(=O)N1C[C@H](O)C[C@H]1C(=O)N[C@]1(C(=O)NS(=O)(=O)C2CC2)C[C@H]1C=C, 9.8 mM, 4.0 h) of 54%.
As for `CC[C@@H]1O[C@H](C)CCC=C[C@@H]2C[C@@]2(C(=O)NS(=O)(=O)C2(C)CC2)NC(=O)[C@@H]2C[C@@H](O)CN2C(=O)[C@H]1NC(=O)OC(C)(C)C`, the ring closure, isolated yield in data set [1] (from C=CCC[C@@H](C)O[C@@H](CC)[C@H](NC(=O)OC(C)(C)C)C(=O)N1C[C@H](O)C[C@H]1C(=O)N[C@]1(C(=O)NS(=O)(=O)C2(C)CC2)C[C@H]1C=C, 8.7 mM, 74.0 h, 5 steps) was 10%.
Take `C[C@@H]1CC/C=C\[C@@H]2C[C@@]2(C(=O)NS(=O)(=O)C2(C)CC2)NC(=O)[C@@H]2C[C@@H](O)CN2C(=O)[C@@H](NC(=O)OC(C)(C)C)[C@H](C)O1`: the ring closure, isolated yield in data set [1] (from C=CCC[C@@H](C)O[C@@H](C)[C@H](NC(=O)OC(C)(C)C)C(=O)N1C[C@H](O)C[C@H]1C(=O)N[C@]1(C(=O)NS(=O)(=O)C2(C)CC2)C[C@H]1C=C, 8.0 mM, 2.0 h) turned out to be 24%.
On to `COc1ccc2c(O[C@@H]3C[C@H]4C(=O)N[C@]5(C(=O)NS(=O)(=O)C6(C)CC6)C[C@H]5/C=C\CC[C@@H](C)O[C@@H](C)[C@H](NC(=O)OC(C)(C)C)C(=O)N4C3)nccc2c1` [Compound 2001, tert-butyl ((2R,6S,7S,9R,13aS,14aR,16aS,Z)-2-((6-methoxyisoquinolin-1-yl)oxy)-7,9-dimethyl-14a-(((1-methylcyclopropyl)sulfonyl)carbamoyl)-5,16-dioxo-2,3,5,6,7,9,10,11,13a,14,14a,15,16,16a-tetradecahydro-1H-cyclopropa[i]pyrrolo[1,2-e][1,5,8]oxadiazacyclopentadecin-6-yl)carbamate], for which the EC50 in data set [2] and in data set [3] was 1.01 to 5 nM each time. The molecule further gave a ring closure, yield after HPLC in data set [4] of 30%.
For the molecule `CCOc1cc2ccnc(O[C@@H]3C[C@H]4C(=O)N[C@]5(C(=O)NS(=O)(=O)C6(C)CC6)C[C@H]5/C=C\CC[C@@H](C)O[C@@H](CC)[C@H](NC(=O)OC(C)(C)C(F)F)C(=O)N4C3)c2cc1F` [Compound 2615, 1,1-difluoro-2-methylpropan-2-yl ((2R,6S,7S,9R,13 aS,14aR,16aS,Z)-2-((6-ethoxy-7-fluoroisoquinolin-1-yl)oxy)-7-ethyl-9-methyl-14a-(((1-methylcyclopropyl)sulfonyl)carbamoyl)-5,16-dioxo-2,3,5,6,7,9,10,11,13a,14,14a,15,16,16a-tetradecahydro-1H-cyclopropa[i]pyrrolo[1,2-e][1,5,8]oxadiazacyclopentadecin-6-yl)carbamate], the EC50 in data set [2] and in data set [3] was 0.51 to 1 nM in each case.
As for `CC[C@@H]1O[C@H](C)CC/C=C\[C@@H]2C[C@@]2(C(=O)NS(=O)(=O)C2(C)CC2)NC(=O)[C@@H]2C[C@@H](Oc3nccc4cc(OC)c(F)cc34)CN2C(=O)[C@H]1NC(=O)OC(C)(C)C(F)F` [Compound 2616], the EC50 in data set [2] and in data set [3] was 1.01 to 5 nM throughout.
Regarding `CC[C@@H]1O[C@H](C)CC/C=C\[C@@H]2C[C@@]2(C(=O)NS(=O)(=O)C2(C)CC2)NC(=O)[C@@H]2C[C@@H](Oc3ncc(OC)c4ccc(F)cc34)CN2C(=O)[C@H]1NC(=O)OC(C)(C)C(F)F` [Compound 2617, 1,1-difluoro-2-methylpropan-2-yl ((2R,6S,7S,9R,13aS,14aR,16aS,Z)-7-ethyl-2-((7-fluoro-4-methoxyisoquinolin-1-yl)oxy)-9-methyl-14a-(((1-methylcyclopropyl)sulfonyl)carbamoyl)-5,16-dioxo-2,3,5,6,7,9,10,11,13a,14,14a,15,16,16a-tetradecahydro-1H-cyclopropa[i]pyrrolo[1,2-e][1,5,8]oxadiazacyclopentadecin-6-yl)carbamate], the EC50 fell in the range of 0.1 to 0.5 nM in data set [2] and 0.51 to 1 nM in data set [3].
Turning to `CC[C@@H]1O[C@H](C)CC/C=C\[C@@H]2C[C@@]2(C(=O)NS(=O)(=O)C2(C)CC2)NC(=O)[C@@H]2C[C@@H](Oc3ncc(OC)c4ccccc34)CN2C(=O)[C@H]1NC(=O)OC(C)(C)C(F)F` [Compound 2618, 1,1-difluoro-2-methylpropan-2-yl ((2R,6S,7S,9R,13aS,14aR,16aS,Z)-7-ethyl-2-((4-methoxyisoquinolin-1-yl)oxy)-9-methyl-14a-(((1-methylcyclopropyl)sulfonyl)carbamoyl)-5,16-dioxo-2,3,5,6,7,9,10,11,13a,14,14a,15,16,16a-tetradecahydro-1H-cyclopropa[i]pyrrolo[1,2-e][1,5,8]oxadiazacyclopentadecin-6-yl)carbamate], the EC50 in data set [2] and in data set [3] was 0.1 to 0.5 nM each time.

By EC50 is commonly meant the concentration giving half of the maximal effect.
